Laboratory results reported in ChEMBL document CHEMBL4390708, “Design, synthesis, in-silico studies and biological screening of quinazolinone analogues as potential antibacterial agents against MRSA” (2019).
Values after ≈ are worked out from the molar mass of the structure shown.

Tests used:
Type in all cases: functional
Escherichia coli = test: Antibacterial activity against Escherichia coli assessed as reduction in bacterial cell viability incubated for 20 to 24 hrs by REMA method
Staphylococcus aureus [1] = test: Antibacterial activity against Staphylococcus aureus assessed as reduction in bacterial cell viability incubated for 20 to 24 hrs by REMA method
Staphylococcus aureus [2] = test: Antibacterial activity against methicillin-resistant Staphylococcus aureus assessed as reduction in bacterial cell viability incubated for 20 to 24 hrs by REMA method

| SMILES | MIC (Escherichia coli) [µg/mL] | MIC (Staphylococcus aureus [1]) [µg/mL] | MIC (Staphylococcus aureus [2]) [µg/mL] |
| --- | --- | --- | --- |
| O=C(Nc1cccc(-n2c(/C=C/c3ccc(F)cc3)nc3ccccc3c2=O)c1)c1cccs1 | 62.5 (≈ 134 µM) | 31.2 (≈ 66.8 µM) | 31.2 (≈ 66.8 µM) |
| Cc1ccccc1C(=O)Nc1cccc(-n2c(/C=C/c3ccc(C#N)cc3)nc3ccccc3c2=O)c1 | 62.5 (≈ 130 µM) | 62.5 (≈ 130 µM) | 62.5 (≈ 130 µM) |
| COc1ccc(C(=O)Nc2cccc(-n3c(/C=C/c4ccc(F)cc4)nc4ccccc4c3=O)c2)cc1OC | 62.5 (≈ 120 µM) | 62.5 (≈ 120 µM) | 62.5 (≈ 120 µM) |
| O=C(Nc1cccc(-n2c(/C=C/c3ccc(F)cc3)nc3ccccc3c2=O)c1)c1ccccc1 | 62.5 (≈ 135 µM) | 125 (≈ 271 µM) | 62.5 (≈ 135 µM) |
| COc1ccc(CC(=O)Nc2cccc(-n3c(/C=C/c4ccc(Cl)cc4)nc4ccccc4c3=O)c2)cc1 | 62.5 (≈ 120 µM) | 15.6 (≈ 29.9 µM) | 31.2 (≈ 59.9 µM) |
| N#Cc1ccc(/C=C/c2nc3ccccc3c(=O)n2-c2cccc(NC(=O)c3ccccc3)c2)cc1 | 62.5 (≈ 133 µM) | 62.5 (≈ 133 µM) | 62.5 (≈ 133 µM) |
| Cc1ccccc1C(=O)Nc1cccc(-n2c(/C=C/c3ccc(F)cc3)nc3ccccc3c2=O)c1 | 62.5 (≈ 131 µM) | 125 (≈ 263 µM) | 62.5 (≈ 131 µM) |
| COc1ccc(CC(=O)Nc2cccc(-n3c(/C=C/c4ccc(F)cc4)nc4ccccc4c3=O)c2)cc1 | 62.5 (≈ 124 µM) | 62.5 (≈ 124 µM) | 62.5 (≈ 124 µM) |
| N#Cc1ccc(/C=C/c2nc3ccccc3c(=O)n2-c2cccc(NC(=O)c3cccs3)c2)cc1 | 62.5 (≈ 132 µM) | 62.5 (≈ 132 µM) | 62.5 (≈ 132 µM) |
| COc1ccc(C(=O)Nc2cccc(-n3c(/C=C/c4ccc(Cl)cc4)nc4ccccc4c3=O)c2)cc1OC | 62.5 (≈ 116 µM) | 62.5 (≈ 116 µM) | 62.5 (≈ 116 µM) |
| NC[C@H]1O[C@H](O[C@H]2[C@H](O)[C@@H](O[C@H]3O[C@H](CO)[C@@H](O)[C@H](N)[C@H]3O)[C@H](N)C[C@@H]2N)[C@H](O)[C@@H](O)[C@@H]1O [KANAMYCIN] | 7.8 (≈ 16.1 µM) | 7.8 (≈ 16.1 µM) | – |
| CC(=O)NC[C@H]1CN(c2ccc(N3CCOCC3)c(F)c2)C(=O)O1 [LINEZOLID] | – | – | 7.8 (≈ 23.1 µM) |
| CN[C@@H]1[C@H](O[C@H]2[C@H](O[C@H]3[C@H](O)[C@@H](O)[C@H](N=C(N)N)[C@@H](O)[C@@H]3N=C(N)N)O[C@@H](C)[C@]2(O)C=O)O[C@@H](CO)[C@H](O)[C@H]1O [STREPTOMYCIN] | 7.8 (≈ 13.4 µM) | 7.8 (≈ 13.4 µM) | – |
